Measured values from patent US20040115162A1, “Dermatological preparations” (KAO CORPORATION, priority 1999, published 2004).

Tests used:
[1] = system: horny layer; assay: Test 1: skin conductance (water content of the horny layer) after 2-week application on cheeks; type: in vivo, human; design: unit not given here; settings: preparation of 33% diamide derivative and 67% vaseline; applied on cheeks 2 weeks; ten female subjects with chapping; skin conductance meter, 20° C., humidity 45%
Experimental: (§1) Dermatologic preparations (invention products) composed of 33% of each of the diamide derivatives prepared in Preparation Examples 1 to 18 and 67% of vaseline were prepared. Their effects on skin conductance and chapping were evaluated in the below-described manner. For comparison, a dermatologic preparation (Comparative Product 1) composed of vaseline alone was evaluated in the same manner.
(§2) Ten female subjects aged 20 to 50 years, who suffered chapping in cheeks in winter, were employed. Different dermatologic preparations were applied on the right and left cheeks of the subjects for 2 weeks, respectively. On the next day after completion of the application for 2 weeks, the following items were examined.
The face of each subject was washed with warm water of 37° C. After they were allowed to stand in a room at 20° C. under a humidity of 45% for 20 minutes, the water content of the horny layer was measured using a skin conductance meter (product of IBS Co., Ltd.).

[2] = system: chapping in cheeks; assay: Test 1: skin chapping score by naked-eye observation after 2-week application on cheeks; type: in vivo, human; settings: 33% diamide derivative and 67% vaseline, 2 weeks, mean score, 0 no chapping to 4 serious chapping
Experimental: as §1, §2
Each score is expressed in the mean value.
0: No chapping is observed.
1: Slight chapping is observed.
3: Somewhat serious chapping is observed.
4: Serious chapping is observed.

[3] = system: dorsal skin of rats with essential fatty acid deficiency; assay: Test 2: transepidermal water loss in rats with essential fatty acid deficiency; type: in vivo, Wistar male rats; design: unit not given here; settings: 10% diamide derivative and 90% squalane; applied to shaven dorsal part once a day for 2 weeks; evaporimeter; mean of 5 rats
Experimental: (§3) Dermatologic preparations (invention products) of the present invention composed of 10% of each of the diamide derivatives prepared in Preparation Examples 1 to 18 and 90% of squalane were prepared and their transepidermal water loss and percutaneous absorption were evaluated by the below-described test method. For comparison, a dermatologic preparation (Comparative Product 2) composed of squalane alone was also evaluated by the test.
(§4) Wistar male rats were fed with a feed free from essential fatty acids and the resulting rats with essential fatty acid deficiency were employed in this test. The dorsal part of the rat showing essential fatty acid deficiency was carefully shaven and each dermatologic preparation to be evaluated was applied thereto once a day for 2 weeks. A group consisting of 5 rats was provided for the test of each dermatologic preparation. After 2 weeks, the following items were examined.
The dorsal part of the test rat was washed with warm water and the animal was the allowed to stand in a room (at 23° C. under a humidity of 45%) for 1 hour. The transepidermal water loss was then measured with an evaporimeter. Each measured value is expressed in mean value.

[4] = system: dorsal skin of rats with essential fatty acid deficiency; assay: Test 2: percutaneous absorption of 14C-salicylic acid through excised dorsal skin of treated rats; type: in vivo, Wistar male rats; settings: 10% diamide derivative and 90% squalane; once a day for 2 weeks; radioactivity of 14C-salicylic acid penetrated in 2 hours through excised skin; mean
Experimental: as §3, §4
After the dorsal skin of the rat was washed with warm water of 37° C., it was cut and fixed in a percutaneous absorption chamber with the epidermal side thereof directed upward. A lower receiver of the chamber was filled with a phosphate buffer solution while a container on the epidermal side thereof was charged with 1 ml of a phosphate buffer solution containing 37 KBq of ^14C-salicylic acid. Two hours after they were allowed to stand, 1 mL of the phosphate buffer solution was taken out of the lower receiver and the radioactivity of the ^14C-salicylic acid which had penetrated into it was measured. Each value is expressed in mean value.

[5] = Miscibility and mixing stability in cosmetic formulations; type: physicochemical
[6] = in hair liquid composition of Table 10, 1%

SMILES	Skin conductance [1]	Skin chapping score [2]	Transepidermal water loss [3]	Percutaneous absorption [4]	miscibility and mixing stability ([5]; in shampoo of Table 9, 2%)	miscibility and mixing stability ([5]; in skin lotion of Table 7, 1%)	miscibility and mixing stability ([5]; in O/W cream of Table 8, 3.5%)	miscibility and mixing stability [5, 6]
CC(CCCCCCC(=O)NCCOCCO)CCCCC(C)CCCCCCC(=O)NCCOCCO (stereo not drawn) [Compound (A)]	28	0.6	12	572	excellent	excellent	–	–
C/C(=C\CC/C=C(\C)CCCCCCC(=O)NCCOCCO)CCCCCCC(=O)NCCOCCO [Compound (B)]	25	0.9	12	558	–	–	–	–
O=C(CCCCCCCCCCCCCCCCCCC(=O)NCCOCCO)NCCOCCO [Compound (C)]	21	1.0	21	1685	–	–	–	–
O=C(CCCCCCCCC(=O)NCCOCCO)NCCOCCO [Compound (D)]	30	0.5	15	997	–	–	excellent	excellent
O=C(CCC(=O)NCCOCCO)NCCOCCO [Compound (E)]	18	1.0	25	1772	–	–	–	–
COCCCNC(=O)CCCCCCC(C)CCCCC(C)CCCCCCC(=O)NCCCOC (stereo not drawn) [Compound (F)]	20	1.2	20	1487	excellent	excellent	excellent	excellent
CCCCCCCCCCCCOCCCNC(=O)CCCCCCC(C)CCCCC(C)CCCCCCC(=O)NCCCOCCCCCCCCCCCC (stereo not drawn) [Compound (G)]	17	1.1	16	1096	–	–	–	–
COCCOCCNC(=O)CCCCCCC(C)CCCCC(C)CCCCCCC(=O)NCCOCCOC (stereo not drawn) [Compound (H)]	19	1.3	23	2036	–	–	–	–
O=C(CCCCCCCCCCCCCC(=O)NCCOCCO)NCCOCCO [Compound (I)]	–	–	18	1197	–	–	–	–
O=C(CCCCCCCCCCCC(=O)NCCOCCO)NCCOCCO [Compound (J)]	23	0.8	21	1490	–	–	–	–
O=C(CCCCCCCCCCC(=O)NCCOCCO)NCCOCCO [Compound (K)]	–	–	22	1694	–	–	–	–
COCCCNC(=O)CCCCCCCCCCCCCCCCCCC(=O)NCCCOC [Compound (L)]	19	1.3	15	705	–	–	–	–
COCCCNC(=O)CCCCCCCCCCC(=O)NCCCOC [Compound (M)]	–	–	25	2038	–	–	–	–
COCCCNC(=O)CCCCCCCCC(=O)NCCCOC [Compound (N)]	18	1.5	23	1560	–	–	–	–
CCCCCCCCCCCCOCCCNC(=O)CCCCCCCCC(=O)NCCCOCCCCCCCCCCCC [Compound (O)]	–	–	27	2476	–	–	–	–
